# Source: patent US20230066011A1, “PYRROLOPYRIMIDINE DERIVATIVE, AND PHARMACEUTICAL COMPOSITION FOR PREVENTING OR TREATING PROTEIN KINASE-RELATED DISEASE COMPRISING SAME AS ACTIVE INGREDIENT” (VORONOI CO., LTD., priority 2019, published 2023)
# Legend:
# THP-1 cells = assay: THP-1 GI50 (Table 4, cytokine secretion experiment); type: cell-based; conditions: Homo sapiens
# DYRK1 = DYRK1 (Homo sapiens, UniProt Q13627); assay: Kinase HotSpot service (Reaction Biology Corporation), DYRK1; type: biochemical; conditions: ATP 10 uM, read-out: DYRK1 IC50 (values indicated by *)
# Procedure: (§1) The inhibitory activities of the compounds were measured at a 3-fold concentration gradient starting from a maximum compound concentration of […], and the values measured using the Kinase HotSpot service (Reaction Biology Corporation) are indicated by an asterisk (*).
# (§2) All the experimental methods were performed as provided by the Kinase HotSpot Customer Protocol (http://www.reactionbiology.com//Kinase_Assay_Protocol).
# CLK1 = molecular target: T1, CLK1 (Homo sapiens, UniProt P49759); assay: Kinase HotSpot service (Reaction Biology Corporation), CLK1; type: biochemical; conditions: ATP 10 uM, read-out: CLK1 IC50 (values indicated by *)
# T1 construct: purchased DiscoverX Corp. (ScanMAX Kinase analysis panel, service)
# Procedure: as §1, §2
# LRRK2 = LRRK2 (Homo sapiens, UniProt Q5S007); assay: Kinase HotSpot service (Reaction Biology Corporation), LRRK2; type: biochemical; set-up: purchased DiscoverX Corp. (ScanMAX Kinase analysis panel, service); conditions: ATP 10 uM, read-out: LRRK2 IC50 (values indicated by *)
# Procedure: as §1, §2
# CLK3 = molecular target: T2, CLK3 (Homo sapiens, UniProt P49761); assay: ScanMAX Kinase analysis panel, CLK3; type: binding; conditions: 1 μM in DMSO; <35% considered inhibitory; read-out: percent control (% control), CLK3
# T2 construct: purchased DiscoverX Corp. (ScanMAX Kinase analysis panel, service)
# Procedure: (§3) Specifically, the enzyme (kinase) selectivity of Example compounds 238, 361, 411, 157, 161, 228, and 158 selected from the Example compounds of the present invention was determined by commissioning DiscoverX Corp., and an experiment was performed using a ScanMAX™ Kinase analysis panel. In this case, a concentration of the drug with which the enzymes were treated was 1 μM in DMSO, and the percent control (% control) was defined in the same manner as in the following Expression 1.
# (§4) (Example Compound−Positive Control)/(Negative Control−Positive Control)×100 [Expression 1]
# (§5) wherein the positive control represents a compound having a percent control of 0%, and the negative control represents DMSO having a percent control of 100%. For the enzyme selectivity of the present invention, it was considered that the compound has an inhibitory activity on each of the enzymes when the percent control for the corresponding enzyme was <35% (i. e., less than 35%).
# CLK2 = molecular target: T3, CLK2 (Homo sapiens, UniProt P49760); assay: ScanMAX Kinase analysis panel, CLK2; type: binding; conditions: 1 μM in DMSO; <35% considered inhibitory; read-out: percent control (% control), CLK2
# T3 construct: purchased DiscoverX Corp. (ScanMAX Kinase analysis panel, service)
# Procedure: as §3, §4, §5
# FAK = molecular target: T4, FAK (Homo sapiens, UniProt Q05397); assay: ScanMAX Kinase analysis panel, FAK; type: binding; conditions: 1 μM in DMSO; <35% considered inhibitory; read-out: percent control (% control), FAK
# T4 construct: purchased DiscoverX Corp. (ScanMAX Kinase analysis panel, service)
# Procedure: as §3, §4, §5
# PLK4 = molecular target: T5, PLK4 (Homo sapiens, UniProt O00444); assay: ScanMAX Kinase analysis panel, PLK4; type: binding; conditions: 1 μM in DMSO; <35% considered inhibitory; read-out: percent control (% control), PLK4
# T5 construct: purchased DiscoverX Corp. (ScanMAX Kinase analysis panel, service)
# T5 sequence (O00444 1-970): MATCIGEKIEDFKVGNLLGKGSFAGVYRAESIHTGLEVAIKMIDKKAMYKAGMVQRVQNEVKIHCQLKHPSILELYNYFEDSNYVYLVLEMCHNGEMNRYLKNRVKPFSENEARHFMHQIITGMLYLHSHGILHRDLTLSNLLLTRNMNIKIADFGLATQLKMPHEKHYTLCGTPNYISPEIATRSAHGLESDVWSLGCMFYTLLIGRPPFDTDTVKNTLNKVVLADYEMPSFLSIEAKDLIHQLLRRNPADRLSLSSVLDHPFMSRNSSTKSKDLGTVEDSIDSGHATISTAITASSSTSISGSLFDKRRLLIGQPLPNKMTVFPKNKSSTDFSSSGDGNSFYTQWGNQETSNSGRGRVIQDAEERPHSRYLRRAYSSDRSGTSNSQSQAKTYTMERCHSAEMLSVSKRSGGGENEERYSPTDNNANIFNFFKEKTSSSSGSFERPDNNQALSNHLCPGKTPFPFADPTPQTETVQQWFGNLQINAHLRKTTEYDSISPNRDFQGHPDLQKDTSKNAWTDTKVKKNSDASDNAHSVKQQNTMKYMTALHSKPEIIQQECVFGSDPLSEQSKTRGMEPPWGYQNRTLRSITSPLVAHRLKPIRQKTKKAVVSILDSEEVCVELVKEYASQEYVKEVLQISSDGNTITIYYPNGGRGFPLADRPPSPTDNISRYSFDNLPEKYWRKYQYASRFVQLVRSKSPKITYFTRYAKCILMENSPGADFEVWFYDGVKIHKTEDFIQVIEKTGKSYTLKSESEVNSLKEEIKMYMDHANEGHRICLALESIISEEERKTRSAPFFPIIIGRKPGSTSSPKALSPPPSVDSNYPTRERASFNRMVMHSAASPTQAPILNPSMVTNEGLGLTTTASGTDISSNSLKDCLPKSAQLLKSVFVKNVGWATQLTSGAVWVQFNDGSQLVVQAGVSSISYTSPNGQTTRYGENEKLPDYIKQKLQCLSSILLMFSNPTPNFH
# Procedure: as §3, §4, §5
# CSNK1D = molecular target: T6, CSNK1D (Homo sapiens, UniProt P48730); assay: ScanMAX Kinase analysis panel, CSNK1D; type: binding; conditions: 1 μM in DMSO; <35% considered inhibitory; read-out: percent control (% control), CSNK1D
# T6 construct: purchased DiscoverX Corp. (ScanMAX Kinase analysis panel, service)
# Procedure: as §3, §4, §5
# SHP-77 = assay: Inhibition of proliferation of SHP-77 cancer cells (Cell Titer-Glo); type: cell-based; conditions: Homo sapiens, SHP77, 72 hours
# Summary of the method: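 Step one, seed 2,000 cells per well in DMEM or RPMI. Step two, add compound at 11 final concentrations (10 to 0.000169 μM, 3-fold series) and culture for 72 hours. Step three, add Cell Titer-Glo, wait 10 min at room temperature, read luminescence and calculate GI50.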
# T4 sequence (Q05397 whole entry): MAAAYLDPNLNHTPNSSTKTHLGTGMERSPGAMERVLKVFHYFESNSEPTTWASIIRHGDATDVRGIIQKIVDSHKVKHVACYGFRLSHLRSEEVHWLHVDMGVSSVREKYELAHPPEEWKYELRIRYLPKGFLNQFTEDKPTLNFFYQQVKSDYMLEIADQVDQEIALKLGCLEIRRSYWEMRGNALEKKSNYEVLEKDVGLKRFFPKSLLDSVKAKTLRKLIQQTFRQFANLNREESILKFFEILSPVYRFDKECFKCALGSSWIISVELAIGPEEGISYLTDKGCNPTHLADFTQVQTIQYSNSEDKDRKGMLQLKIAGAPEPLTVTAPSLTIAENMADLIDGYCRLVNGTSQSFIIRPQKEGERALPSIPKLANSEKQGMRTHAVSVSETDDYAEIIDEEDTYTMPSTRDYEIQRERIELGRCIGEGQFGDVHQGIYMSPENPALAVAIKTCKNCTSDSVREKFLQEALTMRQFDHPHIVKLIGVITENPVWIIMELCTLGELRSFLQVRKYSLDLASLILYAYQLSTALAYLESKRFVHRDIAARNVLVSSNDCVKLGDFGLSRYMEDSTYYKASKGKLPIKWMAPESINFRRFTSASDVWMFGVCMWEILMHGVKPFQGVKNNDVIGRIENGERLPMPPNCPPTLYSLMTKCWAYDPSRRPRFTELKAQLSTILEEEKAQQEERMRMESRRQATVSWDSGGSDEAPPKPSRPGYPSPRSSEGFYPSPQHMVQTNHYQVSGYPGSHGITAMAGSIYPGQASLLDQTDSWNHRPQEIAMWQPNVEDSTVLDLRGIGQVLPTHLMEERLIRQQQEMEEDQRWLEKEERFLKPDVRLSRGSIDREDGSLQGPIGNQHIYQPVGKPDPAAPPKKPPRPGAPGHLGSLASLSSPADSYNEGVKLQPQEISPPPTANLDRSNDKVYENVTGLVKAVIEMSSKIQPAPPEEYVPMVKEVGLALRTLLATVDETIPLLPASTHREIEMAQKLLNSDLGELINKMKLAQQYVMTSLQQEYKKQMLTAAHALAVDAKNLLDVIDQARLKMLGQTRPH
# T3 sequence (P49760 whole entry): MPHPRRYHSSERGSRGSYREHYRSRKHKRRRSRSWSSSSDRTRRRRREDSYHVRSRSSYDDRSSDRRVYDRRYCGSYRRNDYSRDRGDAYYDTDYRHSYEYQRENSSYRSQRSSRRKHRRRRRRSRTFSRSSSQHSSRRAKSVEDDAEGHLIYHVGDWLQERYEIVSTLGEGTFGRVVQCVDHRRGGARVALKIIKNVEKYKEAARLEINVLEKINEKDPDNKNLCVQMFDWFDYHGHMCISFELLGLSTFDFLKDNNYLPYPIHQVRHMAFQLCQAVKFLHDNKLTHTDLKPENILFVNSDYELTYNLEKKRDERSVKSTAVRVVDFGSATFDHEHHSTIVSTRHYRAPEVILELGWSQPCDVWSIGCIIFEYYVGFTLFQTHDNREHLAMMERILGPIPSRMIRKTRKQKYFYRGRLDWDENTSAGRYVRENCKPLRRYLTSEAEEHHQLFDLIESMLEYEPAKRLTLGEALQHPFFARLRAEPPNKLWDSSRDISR
# T2 sequence (P49761 whole entry): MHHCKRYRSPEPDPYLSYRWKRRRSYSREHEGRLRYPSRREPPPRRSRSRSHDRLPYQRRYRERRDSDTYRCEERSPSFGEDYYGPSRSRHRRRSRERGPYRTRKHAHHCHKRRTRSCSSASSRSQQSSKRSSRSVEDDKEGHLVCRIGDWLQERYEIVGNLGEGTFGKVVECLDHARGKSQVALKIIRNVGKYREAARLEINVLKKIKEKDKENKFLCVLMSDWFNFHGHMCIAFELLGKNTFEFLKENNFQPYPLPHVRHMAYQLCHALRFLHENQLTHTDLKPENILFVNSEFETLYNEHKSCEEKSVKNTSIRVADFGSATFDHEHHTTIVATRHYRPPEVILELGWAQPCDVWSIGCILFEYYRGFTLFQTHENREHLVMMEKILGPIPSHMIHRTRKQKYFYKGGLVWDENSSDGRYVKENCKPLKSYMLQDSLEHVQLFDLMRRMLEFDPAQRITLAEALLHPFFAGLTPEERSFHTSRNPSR
# T6 sequence (P48730 whole entry): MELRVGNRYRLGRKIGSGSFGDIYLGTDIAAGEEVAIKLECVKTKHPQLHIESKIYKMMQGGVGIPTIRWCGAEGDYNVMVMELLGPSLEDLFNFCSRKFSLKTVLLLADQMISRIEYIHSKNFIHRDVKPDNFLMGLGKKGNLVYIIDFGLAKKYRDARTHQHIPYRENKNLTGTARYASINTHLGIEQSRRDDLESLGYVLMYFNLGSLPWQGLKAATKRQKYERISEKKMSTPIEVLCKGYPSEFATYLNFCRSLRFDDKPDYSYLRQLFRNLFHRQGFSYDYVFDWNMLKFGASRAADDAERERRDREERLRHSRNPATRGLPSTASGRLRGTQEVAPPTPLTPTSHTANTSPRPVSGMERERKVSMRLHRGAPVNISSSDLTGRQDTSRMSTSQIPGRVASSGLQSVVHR
# Sequence of LRRK2 (Q5S007 whole entry): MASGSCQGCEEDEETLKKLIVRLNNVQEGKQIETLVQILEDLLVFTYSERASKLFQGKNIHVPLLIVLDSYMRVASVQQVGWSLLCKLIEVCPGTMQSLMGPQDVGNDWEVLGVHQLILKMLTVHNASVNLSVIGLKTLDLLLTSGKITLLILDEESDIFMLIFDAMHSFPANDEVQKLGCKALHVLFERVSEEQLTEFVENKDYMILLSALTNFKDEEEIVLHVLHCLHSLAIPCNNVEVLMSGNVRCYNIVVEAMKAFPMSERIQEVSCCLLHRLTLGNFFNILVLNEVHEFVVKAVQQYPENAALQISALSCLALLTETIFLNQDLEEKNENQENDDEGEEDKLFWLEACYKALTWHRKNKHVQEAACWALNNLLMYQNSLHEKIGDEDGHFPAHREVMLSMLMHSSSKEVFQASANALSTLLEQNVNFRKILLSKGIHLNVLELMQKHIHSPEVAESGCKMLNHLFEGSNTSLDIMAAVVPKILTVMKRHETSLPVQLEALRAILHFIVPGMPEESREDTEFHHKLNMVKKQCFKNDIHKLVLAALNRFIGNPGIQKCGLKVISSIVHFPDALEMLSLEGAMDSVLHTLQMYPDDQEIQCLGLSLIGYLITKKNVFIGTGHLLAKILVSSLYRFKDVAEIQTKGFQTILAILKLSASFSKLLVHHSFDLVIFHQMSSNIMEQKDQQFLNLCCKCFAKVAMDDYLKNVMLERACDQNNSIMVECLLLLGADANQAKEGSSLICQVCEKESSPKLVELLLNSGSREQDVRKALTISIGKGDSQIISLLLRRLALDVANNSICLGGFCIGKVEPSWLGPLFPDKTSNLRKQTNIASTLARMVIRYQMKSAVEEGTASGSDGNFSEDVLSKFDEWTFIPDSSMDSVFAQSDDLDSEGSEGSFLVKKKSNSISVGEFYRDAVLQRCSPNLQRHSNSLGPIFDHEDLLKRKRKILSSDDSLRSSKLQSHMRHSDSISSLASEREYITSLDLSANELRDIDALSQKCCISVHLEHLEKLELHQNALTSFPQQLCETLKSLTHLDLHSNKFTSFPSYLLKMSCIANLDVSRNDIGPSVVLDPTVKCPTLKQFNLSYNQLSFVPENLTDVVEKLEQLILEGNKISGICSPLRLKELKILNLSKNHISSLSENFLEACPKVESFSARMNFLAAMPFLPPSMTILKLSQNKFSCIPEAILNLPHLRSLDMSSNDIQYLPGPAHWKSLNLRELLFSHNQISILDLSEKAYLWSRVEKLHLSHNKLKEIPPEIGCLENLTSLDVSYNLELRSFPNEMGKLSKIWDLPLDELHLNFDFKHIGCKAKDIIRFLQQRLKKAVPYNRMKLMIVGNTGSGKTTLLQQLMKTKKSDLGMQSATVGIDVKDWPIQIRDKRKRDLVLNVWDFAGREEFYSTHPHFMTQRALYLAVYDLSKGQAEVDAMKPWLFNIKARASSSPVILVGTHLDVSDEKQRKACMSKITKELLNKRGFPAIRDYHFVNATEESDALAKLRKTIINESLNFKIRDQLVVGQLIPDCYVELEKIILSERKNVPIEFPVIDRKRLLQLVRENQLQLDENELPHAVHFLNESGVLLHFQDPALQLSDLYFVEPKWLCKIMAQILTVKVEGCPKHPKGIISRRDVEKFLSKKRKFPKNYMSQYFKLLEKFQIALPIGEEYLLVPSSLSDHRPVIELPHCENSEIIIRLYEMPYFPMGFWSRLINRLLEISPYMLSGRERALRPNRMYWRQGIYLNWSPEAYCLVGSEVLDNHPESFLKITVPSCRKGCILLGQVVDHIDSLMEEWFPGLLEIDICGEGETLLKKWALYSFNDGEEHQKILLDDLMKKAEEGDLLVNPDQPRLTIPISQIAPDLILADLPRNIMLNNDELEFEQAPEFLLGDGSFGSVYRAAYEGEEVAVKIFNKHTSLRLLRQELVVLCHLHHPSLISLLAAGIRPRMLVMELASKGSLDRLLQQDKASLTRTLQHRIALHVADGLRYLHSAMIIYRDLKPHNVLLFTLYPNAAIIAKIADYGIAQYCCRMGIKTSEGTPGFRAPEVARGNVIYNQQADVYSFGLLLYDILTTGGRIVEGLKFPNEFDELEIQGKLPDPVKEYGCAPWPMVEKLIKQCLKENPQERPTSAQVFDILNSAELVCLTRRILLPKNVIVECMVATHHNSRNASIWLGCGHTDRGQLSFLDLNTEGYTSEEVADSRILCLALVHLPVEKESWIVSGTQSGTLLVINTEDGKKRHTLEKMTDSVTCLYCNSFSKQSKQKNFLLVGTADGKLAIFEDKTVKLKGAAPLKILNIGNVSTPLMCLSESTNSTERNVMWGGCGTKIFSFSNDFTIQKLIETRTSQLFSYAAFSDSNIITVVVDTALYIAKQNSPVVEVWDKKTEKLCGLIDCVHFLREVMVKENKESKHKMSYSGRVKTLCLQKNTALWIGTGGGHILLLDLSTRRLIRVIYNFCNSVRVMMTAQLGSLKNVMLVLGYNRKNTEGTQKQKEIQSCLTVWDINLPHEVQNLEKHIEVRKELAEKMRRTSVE
Structure (SMILES),GI50 (THP-1 cells) [nM],IC50 (DYRK1) [nM],IC50 (CLK1) [nM],IC50 (LRRK2) [nM],remaining binding at 1 µM (CLK3) [%],remaining binding at 1 µM (CLK2) [%],remaining binding at 1 µM (FAK) [%],remaining binding at 1 µM (PLK4) [%],remaining binding at 1 µM (CSNK1D) [%],GI50 (SHP-77) [nM]
COc1cc(S(=O)(=O)N2CCC(N3CCOCC3)CC2)ccc1Nc1nc(C2CC2)c2c(C(F)(F)F)c[nH]c2n1 [Example 226],–,< 100,–,–,–,–,–,–,–,–
"CNc1nc(Nc2ccc(S(=O)(=O)N3CCC(N4CCOCC4)CC3)cc2OC)nc2[nH]cc(C(F)(F)F)c12 [Example 157, N^2-(2-methoxy-4-((4-morpholinopiperidin-1-yl)sulfonyl)phenyl)-N^4-methyl-5-(trifluoromethyl)-7H-pyrrolo[2,3-d]pyrimidine-2,4-diamine 2,2,2-trifluoroacetate]",–,–,–,< 100,3.7,2.9,0.85,10,2.9,301 to 1000
"O=C(c1ccc(Nc2nc(C3CC3)c3c(C(F)(F)F)c[nH]c3n2)c2c1OCCO2)N1CCC(N2CCOCC2)CC1 [Example 228, (8-((4-cyclopropyl-5-(trifluoromethyl)-7H-pyrrolo[2,3-d]pyrimidin-2-yl)amino)-2,3-dihydrobenzo[b][1,4]dioxin-5-yl)(4-morpholinopiperidin-1-yl)methanone]",–,< 100,–,–,25,5.5,24,3.2,45,–
"COCCNc1nc(Nc2ccc(C(=O)N3CCC(N4CCOCC4)CC3)c3c2OCC3)nc2[nH]cc(C#N)c12 [Example 359, 4-((2-methoxy-ethyl)ami-no)-2-((4-(4-morpholino-piperidine-1-carbonyl)-2,3-dihydro-benzofuran-7-yl)amino)-7H-pyrrolo[2,3-d]pyrimidine-5-carbonitrile]",13600,–,–,–,–,–,–,–,–,–
"COc1cc(S(=O)(=O)N2CCOCC2)ccc1Nc1nc(C2CC2)c2c(C#N)c[nH]c2n1 [Example 223, 4-cyclopropyl-2-((2-methoxy-4-(morpholinosulfonyl)phenyl)amino)-7H-pyrrolo[2,3-d]pyrimidine-5-carbonitrile]",–,101 to 300,–,–,–,–,–,–,–,–
CCN1CCP(=O)(c2ccc(Nc3nc(C4CC4)c4c(C#N)c[nH]c4n3)c(OC)c2)CC1 [Example 261],–,< 100,–,–,–,–,–,–,–,–
"CCCNc1nc(Nc2ccc(S(=O)(=O)N3CCC(N4CCOCC4)CC3)cc2OC)nc2[nH]cc(C(F)(F)F)c12 [Example 161, N^2-(2-methoxy-4-((4-morpholinopiperidin-1-yl)sulfonyl)phenyl)-N^4-propyl-5-(trifluoromethyl)-7H-pyrrolo[2,3-d]pyrimidine-2,4-diamine]",–,< 100,< 100,–,11,3.9,2.3,11,15,301 to 1000
"CCNc1nc(Nc2ccc(S(=O)(=O)N3CCC(N4CCOCC4)CC3)cc2OC)nc2[nH]cc(C(F)(F)F)c12 [Example 158, N^4-ethyl-N^2-(2-methoxy-4-((4-morpholinopiperidin-1-yl)sulfonyl)phenyl)-5-(trifluoromethyl)-7H-pyrrolo[2,3-d]pyrimidine-2,4-diamine 2,2,2-trifluoroacetate]",–,< 100,–,–,11,22,1.1,26,5.3,51 to 100
"COc1cc(S(=O)(=O)N2CCC(N3CCOCC3)CC2)ccc1Nc1nc(C2CC2)c2c(C#N)c[nH]c2n1 [Example 224, 4-cyclopropyl-2-((2-methoxy-4-((4-morpholinopiperidin-1-yl)sulfonyl)phenyl)amino)-7H-pyrrolo[2,3-d]pyrimidine-5-carbonitrile]",–,< 100,–,–,–,–,–,–,–,–
"CNc1nc(Nc2ccc(C(=O)N3CCC(N4CCOCC4)CC3)c3c2OCCO3)nc2[nH]cc(C(F)(F)F)c12 [Example 238, (8-((4-(methylamino)-5-(trifluoromethyl)-7H-pyrrolo[2,3-d]pyrimidin-2-yl)amino)-2,3-dihydrobenzo[b][1,4]dioxin-5-yl)(4-morpholinopiperidin-1-yl)methanone]",–,–,–,–,7.8,0.65,7.8,7.8,16,–

# Second part, the molecule after the results:
GI50 (THP-1 cells) [nM],IC50 (DYRK1) [nM],IC50 (CLK1) [nM],IC50 (LRRK2) [nM],remaining binding at 1 µM (CLK3) [%],remaining binding at 1 µM (CLK2) [%],remaining binding at 1 µM (FAK) [%],remaining binding at 1 µM (PLK4) [%],remaining binding at 1 µM (CSNK1D) [%],GI50 (SHP-77) [nM],Structure (SMILES)
4160,–,–,–,–,–,–,–,–,–,"O=C(c1ccc(Nc2nc(NC3CCCC3)c3c(C(F)(F)F)c[nH]c3n2)c2c1OCCO2)N1CCN(C2COC2)CC1 [Example 414, (8-((4-(cyclopentyl-amino)-5-(trifluoromethyl)-7H-pyrrolo[2,3-d]pyrimidin-2-yl)amino)-2,3-dihydrobenzo[b] [1,4]dioxin-5-yl) (4-(oxetan-3-yl)piperazin-1-yl)methanone]"
–,< 100,< 100,< 100,–,–,–,–,–,–,"COc1cc(S(=O)(=O)N2CCC(N3C[C@H]4C[C@@H]3CO4)CC2)ccc1Nc1nc(C2CC2)c2c(C(F)(F)F)c[nH]c2n1 [Example 473, N-(4-((4-((1R,4R)-2-oxa-5-azabicyclo[2.2.1]heptan-5-yl)piperidin-1-yl)sulfonyl)-2-methoxyphenyl)-4-cyclopropyl-5-(trifluoromethyl)-7H-pyrrolo[2,3-d]pyrimidin-2-amine]"
–,–,–,–,21,0,10,23,14,–,"CNc1nc(Nc2ccc(P3(=O)CCN(C4CC4)CC3)cc2OC)nc2[nH]cc(C(F)(F)F)c12 [Example 411, 1-cyclopropyl-4-(3-methoxy-4-((4-(methylamino)-5-(trifluoromethyl)-7H-pyrrolo[2,3-d]pyrimidin-2-yl)amino)phenyl)-1,4-azaphosphinane-4-oxide]"
40400,–,–,–,–,–,–,–,–,–,"COCCNc1nc(Nc2ccc(C(=O)N3CCN(C4COC4)CC3)c3c2OCCO3)nc2[nH]cc(C(F)(F)F)c12 [Example 403, (8-((4-((2-methoxyethyl)-amino)-5-(trifluoromethyl)-7H-pyrrolo[2,3-d]pyrimidin-2-yl)amino)-2,3-dihydrobenzo[b] [1,4]dioxin-5-yl) (4-(oxetan-3-yl)piperazin-1-yl)methanone]"
–,–,–,–,21,3.9,0.75,0.3,3.9,–,"C=CCNc1nc(Nc2ccc(S(=O)(=O)N3CCC(N4CCOCC4)CC3)cc2OC)nc2[nH]cc(C#N)c12 [Example 361, 4-(allylamino)-2-((2-methoxy-4-((4-morpholino-piperidin-1-yl)sulfonyl)phenyl)amino)-7H-pyrrolo[2,3-d]pyrimidine-5-carbonitrile]"
